# Measured values published in patent publication US20220144812A1, “QUINOLINE DERIVATIVES AND THEIR USE FOR THE TREATMENT OF CANCER” (Epizyme, Inc., priority 2019, published 2022).
# Where two headings read alike, the source gives them in different places.
# Tests used:
# 647V cells = experiment: High throughput proliferation (HTP) assay; type: cell-based; conditions: high throughput proliferation, read-out: CREBBP HTP IC50
# Source text: The following example describes methods and materials relating to a high throughput proliferation (HTP) assay. IC50 values (micromolar) are summarized in Table 1, Table 2, and Table 3 under the column labeled: “CREBBP HTP IC50 (micromolar).”
# MATERIALS: 647V cell line, Dulbecco's MEM, penicillin-streptomycin, heat inactivated fetal bovine serum, D-PBS, and CellTiter-Glo were commercially available.
# 647V adherent cells were maintained in complete growth medium (Dulbecco's MEM supplemented with 15% v/v heat inactivated fetal bovine serum) and cultured at 37° C. under 5% CO2.
# METHOD: Measurement of the effect of compound in High Throughput Proliferation (HTP) assays was performed as follows: Exponentially growing 647V cells were plated, in triplicate, in 384-well plates at the appropriate cell density in a final volume of 50 μl. Cells were incubated in the presence of increasing concentrations of compound. Viable cell number was determined at day 7 by addition of 35 μl CellTiter-Glo to each well of the plate, incubated in the dark for 30 minutes, and read on a PerkinElmer EnVision instrument to enumerate the number of cells.
# EP300 (P300(1048-1664)) = molecular target: T1, EP300 (P300(1048-1664)) (Homo sapiens, UniProt Q09472); experiment: Biochemical assay for EP300, SAMDI; conditions: EP300, SAMDI; read-out: EP300 Biochemistry IC50
# T1 construct: P300(1048-1664)
# T1 sequence (Q09472 1048-1664): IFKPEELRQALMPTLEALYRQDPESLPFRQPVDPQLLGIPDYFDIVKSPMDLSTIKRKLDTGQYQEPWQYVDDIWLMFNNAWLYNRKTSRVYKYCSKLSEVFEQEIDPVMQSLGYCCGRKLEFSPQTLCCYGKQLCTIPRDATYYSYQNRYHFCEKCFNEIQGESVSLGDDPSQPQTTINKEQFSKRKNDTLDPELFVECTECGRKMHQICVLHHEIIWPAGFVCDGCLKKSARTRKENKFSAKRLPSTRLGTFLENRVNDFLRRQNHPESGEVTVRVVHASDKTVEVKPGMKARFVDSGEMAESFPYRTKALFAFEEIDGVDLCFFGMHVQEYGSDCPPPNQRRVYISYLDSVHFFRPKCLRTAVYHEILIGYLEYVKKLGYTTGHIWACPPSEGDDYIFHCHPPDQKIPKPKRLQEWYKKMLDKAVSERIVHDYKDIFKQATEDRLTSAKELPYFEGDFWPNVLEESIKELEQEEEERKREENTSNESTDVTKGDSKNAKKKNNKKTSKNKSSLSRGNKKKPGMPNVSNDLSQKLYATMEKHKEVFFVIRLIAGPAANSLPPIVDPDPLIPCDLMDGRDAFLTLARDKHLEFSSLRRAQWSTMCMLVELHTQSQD
# Source text: The following example describes materials and methods relating to a biochemical assay for EP300. IC50 values (micromolar (μM)) are summarized in Table 1, Table 2, and Table 3 under the column labeled: “EP300 Biochemistry IC50 (micromolar).”
# [1] = system: H3K18Ac in HB-CLS-2 cells; experiment: H3K18AC in-cell western (ICW) assay; type: cell-based; conditions: H3K18Ac in-cell western; read-out: CREBBP ICW IC50
# In short: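 HB-CLS-2 cells seeded 16–24 hours before 2 hr compound treatment at 37° C, 5% CO2, then methanol-fixed. H3K18Ac detected with rabbit monoclonal primary (overnight, 4° C) and 800CW anti-rabbit secondary; DRAQ5 stained DNA. Plates imaged at 700 and 800 nm for integrated intensity; IC50 in μM.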
# CREBBP (1084-1701) = molecular target: T2, CREBBP (1084-1701) (Homo sapiens, UniProt Q92793); experiment: Biochemical assay for CREBBP (1084-1701), SAMDI; conditions: SAMDI, read-out: CREBBP Biochemistry IC50
# T2 construct: measured in the following biochemical assay using CREBBP (1084-1701); purchased
# T2 sequence (Q92793 1084-1701): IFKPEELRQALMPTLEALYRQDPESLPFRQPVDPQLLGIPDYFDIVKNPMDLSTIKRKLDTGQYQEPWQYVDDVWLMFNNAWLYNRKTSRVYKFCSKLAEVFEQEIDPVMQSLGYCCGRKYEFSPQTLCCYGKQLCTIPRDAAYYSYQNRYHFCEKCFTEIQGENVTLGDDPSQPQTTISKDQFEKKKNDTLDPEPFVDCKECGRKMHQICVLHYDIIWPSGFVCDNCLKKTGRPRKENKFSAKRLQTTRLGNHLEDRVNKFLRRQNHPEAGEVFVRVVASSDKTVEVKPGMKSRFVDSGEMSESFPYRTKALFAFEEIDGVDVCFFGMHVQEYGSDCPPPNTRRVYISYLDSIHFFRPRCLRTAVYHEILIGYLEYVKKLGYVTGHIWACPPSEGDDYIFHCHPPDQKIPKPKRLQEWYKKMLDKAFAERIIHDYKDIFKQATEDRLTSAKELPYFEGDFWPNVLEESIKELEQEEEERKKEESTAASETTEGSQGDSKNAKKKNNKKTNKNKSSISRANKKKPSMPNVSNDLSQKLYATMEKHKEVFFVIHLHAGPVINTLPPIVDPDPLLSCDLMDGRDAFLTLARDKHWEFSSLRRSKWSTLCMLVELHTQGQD
# In short: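 CREBBP (1084-1701) preincubated with compound 30 min at RT, then substrate mix (biotin-H3 11-25 K14R/K23R peptide, acetyl-CoA) added for 30 min at RT. Reaction stopped with formic acid, neutralised with sodium bicarbonate. Peptide acetylation read by SAMDI mass spectrometry to derive IC50.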
IC50 (EP300 (P300(1048-1664))) [nM],IC50 [1] [nM],IC50 (CREBBP (1084-1701)) [nM],SMILES,"IC50 (647V cells; Homo sapiens, 647-V) [nM]",IC50 (647V cells) [nM]
610,670,1500,CCn1ncc(CN(C)C(=O)c2nc(-c3ccc(NC4CCOCC4)cn3)nc3ccc(Cl)cc23)c1C [Compound 58],1400,–
11,880,23,CCn1ncc(CN(C)C(=O)c2nc(-c3cc(Cl)cc(OCCNC)c3)nc3ccc(Cl)cc23)c1C [Compound 60],500,–
240,710,440,CCn1ncc(CN(C)C(=O)c2cc(-c3cccc(N)n3)nc3ccc(Cl)cc23)c1C [Compound 63],1500,–
300,710,79,CCn1ncc(CN(C)C(=O)c2nc(-c3ccc(NC4CCOCC4)c(OC)c3)nc3ccc(Cl)cc23)c1C [Compound 64],580,–
790,720,410,CCn1ncc(CN(C)C(=O)c2nc(-c3cc(C(=O)NC4CCN(C)CC4)n(C)n3)nc3ccc(Cl)cc23)c1C [Compound 65],740,–
780,730,380,CCn1ncc(CN(C)C(=O)c2nc(-c3ccc(OCCCO)c(C)c3)nc3ccc(Cl)cc23)c1C [Compound 66],540,–
250,780,280,CCn1ncc(CN(C)C(=O)c2nc(-c3ccc4cc[nH]c4c3)nc3ccc(Cl)cc23)c1C [Compound 67],550,–

# The next lines start with the compound.
SMILES,IC50 (EP300 (P300(1048-1664))) [nM],IC50 [1] [nM],IC50 (CREBBP (1084-1701)) [nM],"IC50 (647V cells; Homo sapiens, 647-V) [nM]",IC50 (647V cells) [nM]
CCn1ncc(CN(C)C(=O)c2nc(-c3cc(C)c4n[nH]cc4c3)nc3ccc(Cl)cc23)c1C [Compound 44],83,380,27,270,–
CCn1ncc(CN(C)C(=O)c2cc(-c3ccc(OCCO)c(C)n3)nc3ccc(Cl)cc23)c1C [Compound 45],75,390,74,380,–
CCn1ncc(CN(C)C(=O)c2nc(-c3ccc(OCCCNC)c(C4CC4)c3)nc3ccc(Cl)cc23)c1C [Compound 46],320,410,41,200,–
CCn1ncc(CN(C)C(=O)c2cc(-c3cnc[nH]3)nc3ccc(Cl)cc23)c1C [Compound 48],110,450,380,770,–
CCn1ncc(CN(C)C(=O)c2nc(-c3cc(Cl)cc(NCCCNC)c3)nc3ccc(Cl)cc23)c1C [Compound 50],5,480,16,–,150
CCn1ncc(CN(C)C(=O)c2nc(-c3cc4nc[nH]c4cc3OC)nc3ccc(Cl)cc23)c1C [Compound 51],690,520,570,520,–
CCn1ncc(CN(C)C(=O)c2nc(-c3ccc(OCCCO)cc3C)nc3ccc(Cl)cc23)c1C [Compound 53],280,570,130,460,–
CCn1ncc(CN(C)C(=O)c2nc(-c3ccc(OCCN4CCCC4)c(Cl)c3)nc3ccc(Cl)cc23)c1C [Compound 54],330,570,63,280,–
CCn1ncc(CN(C)C(=O)c2nc(-c3cc(C)cc(NC4CCNCC4)c3)nc3ccc(Cl)cc23)c1C [Compound 55],7,600,21,240,–
CCn1ncc(CN(C)C(=O)c2nc(-c3ccc(OCCNC(C)=O)cc3Cl)nc3ccc(Cl)cc23)c1C [Compound 56],580,630,280,520,–
